Assay results as given in paper PMC11831560, “Development of the Pyrido[2,3-d]pyrimidin-7(8H)-one Scaffold toward Potent and Selective NUAK1 Inhibitors” (ACS Medicinal Chemistry Letters, 2025).
Several values for one entry are separate records, joined by “and”; a condition that tells them apart may be missing. Equal entries are not always repeated.

Assays:
MARK3 = target: T1, MARK3 (Homo sapiens, UniProt P27448); assay: ADP-Glo biochemical assay MARK3; conditions: for IC50 / MARK3 pIC50: ADP-Glo assay; for IC50: read-out: MARK3 pIC50 (converted)
T1 construct: purchased MRC PPU
Description: (§1) Biological experimental procedures
(§2) ADP-Glo biochemical assays
(§3) Protein kinase activity in the presence of inhibitor compounds was determined by ADP-Glo assay (Promega), as previously described.1,2 Compounds were serialised using a Labcyte Echo 520 and transferred to 384 well plates (Greiner 784201) followed by the addition 5 µL of substrate containing peptide and ATP at Km in buffer (see Table S6). 5 µL of purified protein was added and the plate was incubated for 60 minutes at room temperature (ng/well; see Table S6). 3 µL of assay mixture was transferred using an Integra Viaflo384 into a white low volume plate (Greiner 781904) prior to the addition of 3 µL of ADP-Glo Reagent™ for a further 40 minute incubation. After incubation with 6 µL of Kinase Detection Reagent for 30 minutes, plate luminescence was read (Pherastar FSX, BMG […]
(§4) 30 mM HEPES pH7.4, 3 mM MgCl2, 3 mM MnCl2, 1.2 mM DTT, 0.01% CHAPS
(§5) Table S6: Conditions for protein kinase ADP-Glo assays
(§6) ATP AT Peptide Peptide Enzyme Enzyme Assay Buffe Min.
(§7) Protein conc. P Peptide name conc. supplier amount supplier vol. r na […]
(§8) NUAK1 µM µM Sakamototide 50 µM Merck 6.7 ng PPU 10 µl A 6
(§9) A µM µM Sakamototide 100 µM Merck 1 ng PPU 10 µl B 2 […]
(§10) aMin. n: Minimum number of technical replicates per compound

NUAK1 [1] = target: T2, NUAK1 (Homo sapiens, UniProt O60285); assay: ADP-Glo biochemical assay NUAK1; parameters: purchased MRC PPU; conditions: ADP-Glo assay; for IC50: read-out: NUAK1 pIC50 (converted)
T2 sequence (O60285 1-661): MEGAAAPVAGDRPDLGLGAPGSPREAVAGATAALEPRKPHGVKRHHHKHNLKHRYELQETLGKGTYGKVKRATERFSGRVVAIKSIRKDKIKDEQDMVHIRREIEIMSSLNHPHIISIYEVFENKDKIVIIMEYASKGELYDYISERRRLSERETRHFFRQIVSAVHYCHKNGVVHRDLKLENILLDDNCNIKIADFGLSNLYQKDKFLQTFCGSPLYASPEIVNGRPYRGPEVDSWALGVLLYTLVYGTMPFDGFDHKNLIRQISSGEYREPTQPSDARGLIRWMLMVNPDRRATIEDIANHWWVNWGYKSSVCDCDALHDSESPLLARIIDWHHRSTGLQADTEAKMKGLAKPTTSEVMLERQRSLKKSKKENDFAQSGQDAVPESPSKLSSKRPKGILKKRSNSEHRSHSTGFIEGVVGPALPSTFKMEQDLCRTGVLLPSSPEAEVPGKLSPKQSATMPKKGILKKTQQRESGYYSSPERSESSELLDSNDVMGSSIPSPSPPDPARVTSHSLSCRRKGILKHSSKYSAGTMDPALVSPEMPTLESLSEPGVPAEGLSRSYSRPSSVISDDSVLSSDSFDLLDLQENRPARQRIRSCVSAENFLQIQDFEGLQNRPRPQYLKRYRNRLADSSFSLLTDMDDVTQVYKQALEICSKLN
Description: as §1, §2, §3, §4, §5, §6, §7, §8, §9, §10

[2] = Microsomal stability, mouse; type: in vitro ADME; conditions: mouse liver microsomes; read-out: MLM t1/2
Description: (§11) All single point assay determinations carried out in duplicate.
(§12) ADMET and PK experimental methods
(§13) Microsomal stability: analysis was performed by Cyprotex Discovery. […]

NUAK1 [3] = target: T2, NUAK1; assay: NanoBRET target engagement assay, HEK293 cells; conditions: cell-based NanoBRET target engagement assay
Description: NanoBRET® target engagement assay
The binding of compounds to NUAK1 in intact cells was assessed using an NanoBRET® TE Intracellular Kinase Assay (Promega N2501). HEK293 cells transiently transfected with NanoLuc®- NUAK1 Fusion Vector (Promega NV1831) were incubated with 10 nL K5 tracer (provided in the kit, Promega N2501) and 40 nL of the test compounds in 100% DMSO in a white low volume non-binding 384 assay plate (Grenier Bio One 784904) for 90 min at 37 °C. After incubation, followed by cooling for 15 min at room temperature, 4 µL of the Intracellular TE Nano-Glo ® Substrate/Inhibitor (Promega N2160) was added to each well. The plate was read using a Pherastar FSX plate reader (BMG Labtech).
Minimum number of 2 technical replicates per compound.
Activity pIC50 values and standard error of the mean (SEM) were estimated using a 4-parameter fit (Dotmatics). The SEM for all reported data was 0.2 or lower. See Experimental Procedures for minimum number of replicates per compound. Each experiment included a Standard compound whose pIC50 value was compared to a quality control chart. If the Standard pIC50 value fell outside the range of pIC50 +/-3 standard deviation, then the experiment was invalidated. […]

AMPKA α1β2γ1 [4] = target: T3, AMPKA α1β2γ1 (Homo sapiens, UniProt Q13131); assay: ADP-Glo biochemical assay AMPKA; conditions: AMPKA IC50/NUAK1 IC50
T3 construct: purchased MRC PPU
Description: as §1, §2, §3, §4, §5, §6, §7, §8, §9, §10

AMPKA α1β2γ1 [5] = target: T4, AMPKA α1β2γ1 (Homo sapiens, UniProt O43741+P54619+Q13131); assay: ADP-Glo biochemical assay AMPKA; conditions: ADP-Glo assay; read-out: AMPKA pIC50 (converted)
T4 construct: purchased MRC PPU
Description: as §1, §2, §3, §4, §5, §6, §7, §8, §9, §10

MARK4 = target: T5, MARK4 (Homo sapiens, UniProt Q96L34); assay: ADP-Glo biochemical assay MARK4; conditions: for IC50: ADP-Glo assay, read-out: MARK4 pIC50 (converted)
T5 construct: purchased MRC PPU
T5 sequence (Q96L34 1-752): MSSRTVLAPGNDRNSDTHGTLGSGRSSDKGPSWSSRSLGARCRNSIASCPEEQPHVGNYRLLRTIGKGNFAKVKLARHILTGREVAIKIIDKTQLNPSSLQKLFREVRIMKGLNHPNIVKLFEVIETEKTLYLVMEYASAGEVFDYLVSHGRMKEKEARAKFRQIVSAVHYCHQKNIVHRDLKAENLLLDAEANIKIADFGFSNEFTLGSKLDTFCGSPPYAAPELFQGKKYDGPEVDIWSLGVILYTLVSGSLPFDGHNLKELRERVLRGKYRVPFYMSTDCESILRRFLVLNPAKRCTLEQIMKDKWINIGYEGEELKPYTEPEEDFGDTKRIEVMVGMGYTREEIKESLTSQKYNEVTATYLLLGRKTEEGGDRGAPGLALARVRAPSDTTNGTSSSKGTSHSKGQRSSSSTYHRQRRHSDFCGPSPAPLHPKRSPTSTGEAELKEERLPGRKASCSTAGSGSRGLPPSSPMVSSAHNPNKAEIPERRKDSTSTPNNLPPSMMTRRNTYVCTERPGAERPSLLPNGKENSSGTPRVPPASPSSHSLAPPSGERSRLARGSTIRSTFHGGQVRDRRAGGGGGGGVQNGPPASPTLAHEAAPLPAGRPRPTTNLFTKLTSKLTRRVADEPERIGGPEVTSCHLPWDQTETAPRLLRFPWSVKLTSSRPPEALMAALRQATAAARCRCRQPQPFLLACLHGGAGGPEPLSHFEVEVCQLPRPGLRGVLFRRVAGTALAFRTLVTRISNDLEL
Description: as §1, §2, §3, §4, §5, §6, §7, §8, §9, §10

MARK2 = target: T6, MARK2 (Homo sapiens, UniProt Q7KZI7); assay: ADP-Glo biochemical assay MARK2; conditions: for IC50: ADP-Glo assay, read-out: MARK2 pIC50 (converted)
T6 construct: purchased MRC PPU
Description: as §1, §2, §3, §4, §5, §6, §7, §8, §9, §10

MARK1 = target: T7, MARK1 (Homo sapiens, UniProt Q9P0L2); assay: ADP-Glo biochemical assay MARK1; conditions: for IC50: ADP-Glo assay, read-out: MARK1 pIC50 (converted)
T7 construct: purchased MRC PPU
Description: as §1, §2, §3, §4, §5, §6, §7, §8, §9, §10

[6] = Microsomal stability, human; type: in vitro ADME; conditions: human liver microsomes; read-out: HLM t1/2
Description: as §11, §12, §13

T3 sequence (Q13131 11-559 limits assumed): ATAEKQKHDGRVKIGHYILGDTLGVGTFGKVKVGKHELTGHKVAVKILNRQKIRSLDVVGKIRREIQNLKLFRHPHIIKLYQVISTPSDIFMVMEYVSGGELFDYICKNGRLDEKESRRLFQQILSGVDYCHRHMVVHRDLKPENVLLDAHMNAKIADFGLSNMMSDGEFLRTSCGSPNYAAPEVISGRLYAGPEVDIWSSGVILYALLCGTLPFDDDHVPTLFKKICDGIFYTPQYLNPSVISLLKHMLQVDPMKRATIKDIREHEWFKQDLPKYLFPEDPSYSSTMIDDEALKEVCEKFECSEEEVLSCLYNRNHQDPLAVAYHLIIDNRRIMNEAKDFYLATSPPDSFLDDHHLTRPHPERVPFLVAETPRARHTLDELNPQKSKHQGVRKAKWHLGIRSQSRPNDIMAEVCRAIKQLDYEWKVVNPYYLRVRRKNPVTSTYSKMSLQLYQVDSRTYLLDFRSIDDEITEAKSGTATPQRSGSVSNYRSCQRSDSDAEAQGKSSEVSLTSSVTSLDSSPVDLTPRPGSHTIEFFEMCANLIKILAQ
T3 sequence (O43741 whole entry partner): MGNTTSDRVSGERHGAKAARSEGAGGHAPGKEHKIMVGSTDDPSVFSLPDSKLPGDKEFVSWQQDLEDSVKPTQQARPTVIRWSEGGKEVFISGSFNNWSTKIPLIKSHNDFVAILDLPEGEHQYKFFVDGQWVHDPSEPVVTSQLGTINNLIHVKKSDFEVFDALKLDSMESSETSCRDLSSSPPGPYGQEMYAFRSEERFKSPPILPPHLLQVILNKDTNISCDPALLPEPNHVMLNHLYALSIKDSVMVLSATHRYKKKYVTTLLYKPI
T3 sequence (P54619 whole entry partner): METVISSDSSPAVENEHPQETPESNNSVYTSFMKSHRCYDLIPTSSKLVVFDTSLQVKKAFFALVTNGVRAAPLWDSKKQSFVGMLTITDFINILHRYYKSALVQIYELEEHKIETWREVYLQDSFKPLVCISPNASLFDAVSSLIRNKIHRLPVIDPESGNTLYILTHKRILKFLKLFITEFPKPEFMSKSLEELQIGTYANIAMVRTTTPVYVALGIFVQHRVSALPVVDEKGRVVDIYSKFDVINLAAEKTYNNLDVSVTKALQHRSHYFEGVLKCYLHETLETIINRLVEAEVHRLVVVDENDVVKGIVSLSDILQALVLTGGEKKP
T4 sequence (Q13131 11-559 limits assumed): as the sequence (Q13131 11-559 limits assumed) above
T4 sequence (O43741 whole entry partner): as the sequence (O43741 whole entry partner) above
T4 sequence (P54619 whole entry partner): as the sequence (P54619 whole entry partner) above
T6 sequence (Q7KZI7 whole entry): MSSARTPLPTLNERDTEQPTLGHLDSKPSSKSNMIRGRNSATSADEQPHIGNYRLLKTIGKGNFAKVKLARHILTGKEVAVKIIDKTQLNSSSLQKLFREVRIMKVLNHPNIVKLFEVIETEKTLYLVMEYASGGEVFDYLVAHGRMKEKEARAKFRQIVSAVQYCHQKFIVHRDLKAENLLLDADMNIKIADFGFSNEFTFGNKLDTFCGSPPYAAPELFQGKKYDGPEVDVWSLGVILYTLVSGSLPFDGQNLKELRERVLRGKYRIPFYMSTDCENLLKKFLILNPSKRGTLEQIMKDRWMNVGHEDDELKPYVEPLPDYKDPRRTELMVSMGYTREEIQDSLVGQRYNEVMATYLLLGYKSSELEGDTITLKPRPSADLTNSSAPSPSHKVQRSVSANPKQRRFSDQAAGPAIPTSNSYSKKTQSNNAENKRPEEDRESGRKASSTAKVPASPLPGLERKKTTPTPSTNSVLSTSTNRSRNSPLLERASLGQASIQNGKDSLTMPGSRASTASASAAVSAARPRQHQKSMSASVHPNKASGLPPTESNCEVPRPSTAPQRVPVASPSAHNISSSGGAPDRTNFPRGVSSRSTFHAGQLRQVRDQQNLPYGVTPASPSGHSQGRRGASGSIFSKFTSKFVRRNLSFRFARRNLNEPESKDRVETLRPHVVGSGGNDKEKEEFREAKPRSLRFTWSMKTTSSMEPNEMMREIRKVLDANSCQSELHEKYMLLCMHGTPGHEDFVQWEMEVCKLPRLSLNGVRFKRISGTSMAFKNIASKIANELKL
T7 sequence (Q9P0L2 whole entry): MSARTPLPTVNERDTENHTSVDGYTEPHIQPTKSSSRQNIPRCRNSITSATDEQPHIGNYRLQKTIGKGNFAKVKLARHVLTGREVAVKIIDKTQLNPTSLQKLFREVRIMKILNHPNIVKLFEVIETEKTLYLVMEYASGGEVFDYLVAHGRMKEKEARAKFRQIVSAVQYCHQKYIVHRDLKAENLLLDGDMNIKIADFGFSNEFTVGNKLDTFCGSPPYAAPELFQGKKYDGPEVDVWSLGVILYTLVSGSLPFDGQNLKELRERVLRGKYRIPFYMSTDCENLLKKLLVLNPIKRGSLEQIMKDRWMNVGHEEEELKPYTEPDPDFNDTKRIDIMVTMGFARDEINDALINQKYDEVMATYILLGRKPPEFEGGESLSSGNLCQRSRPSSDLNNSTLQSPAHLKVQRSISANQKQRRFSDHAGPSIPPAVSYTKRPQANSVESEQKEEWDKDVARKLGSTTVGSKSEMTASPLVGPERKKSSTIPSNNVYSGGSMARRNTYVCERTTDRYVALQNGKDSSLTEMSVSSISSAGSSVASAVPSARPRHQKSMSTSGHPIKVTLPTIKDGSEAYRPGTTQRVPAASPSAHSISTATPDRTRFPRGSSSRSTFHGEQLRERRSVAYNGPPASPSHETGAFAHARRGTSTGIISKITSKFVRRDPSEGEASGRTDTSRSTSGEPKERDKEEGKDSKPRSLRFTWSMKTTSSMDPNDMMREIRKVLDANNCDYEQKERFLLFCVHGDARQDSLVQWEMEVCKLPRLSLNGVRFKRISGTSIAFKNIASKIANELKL
T1 sequence (P27448 whole entry): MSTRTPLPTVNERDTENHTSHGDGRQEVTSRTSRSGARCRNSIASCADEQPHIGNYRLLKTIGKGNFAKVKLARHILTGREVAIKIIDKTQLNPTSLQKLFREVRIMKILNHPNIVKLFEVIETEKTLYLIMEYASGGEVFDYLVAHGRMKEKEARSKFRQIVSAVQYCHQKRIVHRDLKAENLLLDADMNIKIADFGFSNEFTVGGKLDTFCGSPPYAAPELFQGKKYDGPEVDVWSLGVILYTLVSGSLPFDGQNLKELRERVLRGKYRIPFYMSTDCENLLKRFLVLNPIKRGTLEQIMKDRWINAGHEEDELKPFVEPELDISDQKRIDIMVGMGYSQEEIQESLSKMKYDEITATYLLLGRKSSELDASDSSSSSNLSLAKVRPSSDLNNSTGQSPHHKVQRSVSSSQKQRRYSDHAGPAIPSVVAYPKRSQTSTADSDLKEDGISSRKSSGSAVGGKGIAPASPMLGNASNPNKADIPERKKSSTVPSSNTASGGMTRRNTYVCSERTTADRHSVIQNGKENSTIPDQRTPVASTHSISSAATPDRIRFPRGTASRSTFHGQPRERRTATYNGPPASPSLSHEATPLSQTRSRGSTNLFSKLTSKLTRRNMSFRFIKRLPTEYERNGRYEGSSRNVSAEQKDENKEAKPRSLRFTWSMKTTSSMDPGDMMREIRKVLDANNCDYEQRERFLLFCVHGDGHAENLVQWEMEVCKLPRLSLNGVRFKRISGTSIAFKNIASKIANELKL

MARK3 Fold selectivity IC50/NUAK1 IC50 (MARK3)	MARK3 pIC50 (MARK3)	NUAK1 cell TE pIC50 (NUAK1 [3])	NUAK1 pIC50 (NUAK1 [1])	Compound	also measured
57 fold	5.6	inactive	7.4	COc1cc(Nc2ncc3c(n2)N(C2CCCC2)C(=O)C(C)(C)O3)cc(OC)c1OC [Compound 19]	half-life at 1 µM [2]: 1.4 min; IC50 (NUAK1 [3]; read-out: NUAK1 cell TE pIC50 (converted)): > 25.1 µM
> 676 fold	< 4.6	<4.6	7.4	COc1cc(Nc2ncc3cc(C#N)c(=O)n(C4CCCC4)c3n2)cc(OC)c1 [Compound 17]	–
> 1098 fold	< 4.6	inactive	7.7	COc1cc(Nc2ncc3cc(C#N)c(=O)n(C4CCCC4)c3n2)cc(OC)c1OC [Compound 16, ON123790, reference compound]	half-life at 0.75 h, 1 µM [2]: 1.9 min; half-life at 1 µM [6]: 13.6 min; NUAK1 cell TE pIC50 (NUAK1 [3]; listed as ON123790 (16)): <4.6
40 fold	4.9	–	6.5	COc1nn(C)cc1Nc1ncc2c(C)cc(=O)n(C3CCCC3)c2n1 [Compound 18]	–
288 fold	5.8	6.6	8.21 and 8.2	COc1cc(Nc2ncc3c(C)cc(=O)n(C4CCCC4)c3n2)cc(OC)c1OC [Compound 15]	AMPKA Fold selectivity IC50/NUAK1 IC50 (AMPKA α1β2γ1 [4]): > 12000 fold; IC50 (AMPKA α1β2γ1 [5]): > 75.9 µM
1000 fold and 1005 fold	5.59 and 5.6	7.0	8.59 and 8.6	CC(C)N1CCN(c2ccc(Nc3ncc4ccn(CC5CCOCC5)c4n3)cc2)CC1 [Compound 25]	half-life at 1 µM [2]: 13.9 min; IC50 (MARK4): 11.5 µM; MARK4 Fold selectivity IC50/NUAK1 IC50 (MARK4): 4467 fold; IC50 (MARK2): 7.08 µM; MARK2 Fold selectivity IC50/NUAK1 IC50 (MARK2): 2754 fold; IC50 (MARK1): 3.55 µM; MARK1 Fold selectivity IC50/NUAK1 IC50 (MARK1): 1380 fold; AMPKA Fold selectivity IC50/NUAK1 IC50 (AMPKA α1β2γ1 [4]): 1047 fold; IC50 (AMPKA α1β2γ1 [5]): 2.69 µM

More lines, now with the values behind:

Compound	MARK3 Fold selectivity IC50/NUAK1 IC50 (MARK3)	MARK3 pIC50 (MARK3)	NUAK1 cell TE pIC50 (NUAK1 [3])	NUAK1 pIC50 (NUAK1 [1])	also measured
Cc1cc(=O)n(C2CCCC2)c2nc(Nc3ccc(N4CCNCC4)cn3)ncc12 [Compound 13]	> 11 fold	–	–	–	IC50 (MARK3): > 3.16 µM; IC50 (NUAK1 [1]): 0.316 µM
CN1C2CC1CN(c1ccc(Nc3ncc4ccn(CC5CCOC5)c4n3)cc1)C2 (stereo not drawn) [Compound 29]	641 fold	5.3	6.4	8.1	half-life at 1 µM [2]: 12.8 min; AMPKA Fold selectivity IC50/NUAK1 IC50 (AMPKA α1β2γ1 [4]): 708 fold; IC50 (AMPKA α1β2γ1 [5]): 5.62 µM
Cc1cc(=O)n(C2CCCC2)c2nc(Nc3ccc(N4CCN(C(C)C)CC4)cc3)ncc12 [Compound 5]	71 fold	6.5	6.6	8.4	half-life at 0.75 h, 1 µM [2]: 2.2 min; IC50 (MARK4): 9.12 µM; MARK4 Fold selectivity IC50/NUAK1 IC50 (MARK4): 2042 fold; IC50 (MARK2): 5.62 µM; MARK2 Fold selectivity IC50/NUAK1 IC50 (MARK2): 1259 fold; IC50 (MARK1): 3.8 µM; MARK1 Fold selectivity IC50/NUAK1 IC50 (MARK1): 851 fold; AMPKA Fold selectivity IC50/NUAK1 IC50 (AMPKA α1β2γ1 [4]): 240 fold; IC50 (AMPKA α1β2γ1 [5]): 1.07 µM; IC50 (NUAK1 [1]): 0.00447 µM
CN1CCN(c2ccc(Nc3ncc4c(n3)N(C3CCCC3)C(=O)C(C)(C)O4)cc2)CC1 [Compound 6]	8 fold	5.9	<4.6	6.8	–
COc1cc(N2CCN(C)CC2)ccc1Nc1ncc2c(C)cc(=O)n(C3CCCC3)c2n1 [Compound 12]	> 89 fold	< 4.6	–	6.6	–
Cc1nc(Nc2cnn(C3CCNCC3)c2)nc2c1N(C)C(=O)c1cc3ccccc3cc1N2C [Compound 2, HTH-01-015, reference compound]	–	–	< 4.3	–	–
Cc1cc(=O)n(CC(O)CO)c2nc(Nc3ccc(N4CC5CC(C4)N5C)cc3)ncc12 (stereo not drawn) [Compound 22]	20 fold	5.7	–	7.0	–
CN1C2CC1CN(c1ccc(Nc3ncc4ccn(C5COC5)c4n3)cc1)C2 [Compound 31]	263 fold	5.4	–	7.8	–
COCCn1c(=O)cc(C)c2cnc(Nc3ccc(N4CC5CC(C4)N5C)cc3)nc21 [Compound 21]	35 fold	5.2	–	6.7	–
CN1C2CC1CN(c1ccc(Nc3ncc4ccn(C5CCOC5)c4n3)cc1)C2 (stereo not drawn) [Compound 30]	388 fold	–	–	–	IC50 (MARK3): 6.31 µM; IC50 (NUAK1 [1]): 0.0158 µM
CC(=O)c1c(C)c2cnc(Nc3ccc(N4CCNCC4)cn3)nc2n(C2CCCC2)c1=O [Compound 14, Palbociclib, reference compound]	–	–	–	–	IC50 (NUAK1 [1]): 20 µM
